How the values were obtained:
Type in all cases: cell-based
Conditions in all cases: compounds at 50 nM and 500 nM
[1] = target: T1, IKZF2 (Homo sapiens, UniProt Q96SW2+Q9UKS7); assay: Western blot degradation of IKZF2 in hPBMCs (24 h)
T1 construct: The supernatant was aspirated as the extracted total cell protein; endogenous in cells; host or cells: human peripheral blood mononuclear cells (hPBMCs)
Summary of the method: (§1)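 Compounds were tested at 50 nM and 500 nM on hPBMCs (1×10^6 cells/mL) for 24 h, alongside DMSO. Proteins were detected by Western blot after denaturation at 95 °C; remaining protein computed from normalised band grayscale.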

[2] = target: T2, CK1α (Homo sapiens, UniProt P48729+Q96SW2); assay: Western blot degradation of CK1α in hPBMCs (24 h)
T2 construct: The supernatant was aspirated as the extracted total cell protein; endogenous in cells; host or cells: human peripheral blood mononuclear cells (hPBMCs)
Summary of the method: as §1

[3] = target: T3, GSPT1 (Homo sapiens, UniProt P15170+Q96SW2); assay: Western blot degradation of GSPT1 in hPBMCs (24 h)
T3 construct: The supernatant was aspirated as the extracted total cell protein; endogenous in cells; host or cells: human peripheral blood mononuclear cells (hPBMCs)
Summary of the method: as §1

[4] = target: T4, IKZF3 (Homo sapiens, UniProt Q96SW2+Q9UKT9); assay: Western blot degradation of IKZF3 in hPBMCs (24 h)
T4 construct: The supernatant was aspirated as the extracted total cell protein; endogenous in cells; host or cells: human peripheral blood mononuclear cells (hPBMCs)
Summary of the method: as §1

[5] = target: T5, IKZF1 (Homo sapiens, UniProt Q13422+Q96SW2); assay: Western blot degradation of IKZF1 in hPBMCs (24 h)
T5 construct: The supernatant was aspirated as the extracted total cell protein; endogenous in cells; host or cells: human peripheral blood mononuclear cells (hPBMCs)
Summary of the method: as §1

[6] = target: T6, WEE1 (Homo sapiens, UniProt P30291+Q96SW2); assay: Western blot degradation of WEE1 in hPBMCs (24 h)
T6 construct: The supernatant was aspirated as the extracted total cell protein; endogenous in cells; host or cells: human peripheral blood mononuclear cells (hPBMCs)
Summary of the method: as §1

T6 sequence (P30291 whole entry): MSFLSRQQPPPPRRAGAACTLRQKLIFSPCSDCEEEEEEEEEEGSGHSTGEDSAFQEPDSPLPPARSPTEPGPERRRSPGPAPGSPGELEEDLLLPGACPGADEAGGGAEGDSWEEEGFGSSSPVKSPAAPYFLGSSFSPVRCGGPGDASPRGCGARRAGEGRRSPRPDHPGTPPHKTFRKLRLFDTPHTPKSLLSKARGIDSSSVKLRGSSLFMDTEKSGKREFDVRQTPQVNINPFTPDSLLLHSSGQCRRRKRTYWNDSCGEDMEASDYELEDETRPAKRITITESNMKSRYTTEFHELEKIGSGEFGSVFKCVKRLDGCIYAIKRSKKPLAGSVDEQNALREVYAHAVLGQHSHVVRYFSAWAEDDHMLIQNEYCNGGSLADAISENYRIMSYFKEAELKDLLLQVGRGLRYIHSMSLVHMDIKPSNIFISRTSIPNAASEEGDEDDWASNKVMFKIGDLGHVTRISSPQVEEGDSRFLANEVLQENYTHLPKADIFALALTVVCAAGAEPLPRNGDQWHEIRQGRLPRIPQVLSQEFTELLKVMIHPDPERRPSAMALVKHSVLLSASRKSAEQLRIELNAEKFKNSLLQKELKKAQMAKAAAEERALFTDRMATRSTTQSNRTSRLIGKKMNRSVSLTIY
T6 sequence (Q96SW2 whole entry): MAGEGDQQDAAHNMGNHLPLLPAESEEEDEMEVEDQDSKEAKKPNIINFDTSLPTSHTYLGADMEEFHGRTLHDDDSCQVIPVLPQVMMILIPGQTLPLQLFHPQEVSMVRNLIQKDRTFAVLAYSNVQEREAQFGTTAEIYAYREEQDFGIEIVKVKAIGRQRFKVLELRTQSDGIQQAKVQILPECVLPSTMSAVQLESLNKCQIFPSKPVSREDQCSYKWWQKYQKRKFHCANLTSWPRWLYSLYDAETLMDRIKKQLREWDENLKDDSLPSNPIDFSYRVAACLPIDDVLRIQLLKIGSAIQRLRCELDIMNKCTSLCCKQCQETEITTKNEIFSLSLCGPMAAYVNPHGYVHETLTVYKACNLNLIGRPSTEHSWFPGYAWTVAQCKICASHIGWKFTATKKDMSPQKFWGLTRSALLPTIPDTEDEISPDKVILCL
T6 sequence (Q16531 whole entry partner): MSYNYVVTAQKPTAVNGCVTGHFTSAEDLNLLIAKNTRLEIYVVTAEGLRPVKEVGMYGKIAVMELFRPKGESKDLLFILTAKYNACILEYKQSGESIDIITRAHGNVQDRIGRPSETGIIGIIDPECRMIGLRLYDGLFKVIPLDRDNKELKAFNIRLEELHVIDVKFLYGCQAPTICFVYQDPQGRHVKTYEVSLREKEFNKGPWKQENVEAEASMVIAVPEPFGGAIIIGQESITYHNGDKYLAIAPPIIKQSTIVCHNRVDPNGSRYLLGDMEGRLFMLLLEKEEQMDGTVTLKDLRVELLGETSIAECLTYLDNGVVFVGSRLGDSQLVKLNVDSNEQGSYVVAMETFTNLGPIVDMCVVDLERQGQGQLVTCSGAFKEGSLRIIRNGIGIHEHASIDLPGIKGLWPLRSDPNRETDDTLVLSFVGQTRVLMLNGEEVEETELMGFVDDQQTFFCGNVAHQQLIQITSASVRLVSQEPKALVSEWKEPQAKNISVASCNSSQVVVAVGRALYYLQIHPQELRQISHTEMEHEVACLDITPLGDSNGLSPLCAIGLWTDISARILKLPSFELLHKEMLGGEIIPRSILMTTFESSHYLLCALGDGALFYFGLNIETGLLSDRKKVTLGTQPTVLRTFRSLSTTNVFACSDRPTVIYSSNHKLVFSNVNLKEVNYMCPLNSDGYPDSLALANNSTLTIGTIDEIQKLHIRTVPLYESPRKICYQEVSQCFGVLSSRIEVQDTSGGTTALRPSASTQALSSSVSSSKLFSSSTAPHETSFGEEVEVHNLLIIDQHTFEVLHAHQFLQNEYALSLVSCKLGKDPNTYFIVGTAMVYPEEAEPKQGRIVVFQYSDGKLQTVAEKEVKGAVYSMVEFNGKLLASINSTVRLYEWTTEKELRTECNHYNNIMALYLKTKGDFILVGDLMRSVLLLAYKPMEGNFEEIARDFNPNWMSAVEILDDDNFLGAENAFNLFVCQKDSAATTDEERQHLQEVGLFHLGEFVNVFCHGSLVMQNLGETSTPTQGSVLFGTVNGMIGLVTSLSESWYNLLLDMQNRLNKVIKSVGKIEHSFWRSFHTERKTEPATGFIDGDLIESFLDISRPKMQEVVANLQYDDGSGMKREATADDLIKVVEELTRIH
T5 sequence (Q13422 whole entry): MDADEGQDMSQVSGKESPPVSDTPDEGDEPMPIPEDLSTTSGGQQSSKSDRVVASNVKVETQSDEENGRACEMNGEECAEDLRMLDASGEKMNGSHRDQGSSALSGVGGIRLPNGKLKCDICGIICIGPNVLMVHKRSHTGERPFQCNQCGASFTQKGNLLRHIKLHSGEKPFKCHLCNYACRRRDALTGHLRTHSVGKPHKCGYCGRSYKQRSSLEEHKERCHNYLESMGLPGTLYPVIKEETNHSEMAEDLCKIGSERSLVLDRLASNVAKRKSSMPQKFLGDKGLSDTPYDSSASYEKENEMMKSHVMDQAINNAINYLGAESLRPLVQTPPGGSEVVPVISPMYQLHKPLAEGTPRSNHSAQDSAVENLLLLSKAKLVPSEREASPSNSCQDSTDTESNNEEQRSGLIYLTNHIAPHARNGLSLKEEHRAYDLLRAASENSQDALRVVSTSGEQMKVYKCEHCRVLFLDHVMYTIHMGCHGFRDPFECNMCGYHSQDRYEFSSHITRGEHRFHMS
T5 sequence (Q96SW2 whole entry): as the sequence (Q96SW2 whole entry) above
T5 sequence (Q16531 whole entry partner): as the sequence (Q16531 whole entry partner) above
T4 sequence (Q9UKT9 whole entry): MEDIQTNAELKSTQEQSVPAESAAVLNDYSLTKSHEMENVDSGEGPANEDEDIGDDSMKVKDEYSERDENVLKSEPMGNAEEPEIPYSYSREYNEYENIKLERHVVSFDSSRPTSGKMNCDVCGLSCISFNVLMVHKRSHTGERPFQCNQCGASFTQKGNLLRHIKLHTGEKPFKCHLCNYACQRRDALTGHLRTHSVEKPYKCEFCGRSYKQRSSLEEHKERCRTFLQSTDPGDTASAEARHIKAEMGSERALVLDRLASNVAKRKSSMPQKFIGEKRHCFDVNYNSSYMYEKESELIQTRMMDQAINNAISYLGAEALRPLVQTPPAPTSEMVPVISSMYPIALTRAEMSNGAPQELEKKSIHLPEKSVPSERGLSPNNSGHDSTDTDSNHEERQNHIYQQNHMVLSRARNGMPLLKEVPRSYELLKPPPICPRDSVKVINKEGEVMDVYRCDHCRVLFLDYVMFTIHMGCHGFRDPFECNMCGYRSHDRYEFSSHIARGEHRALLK
T4 sequence (Q96SW2 whole entry): as the sequence (Q96SW2 whole entry) above
T4 sequence (Q16531 whole entry partner): as the sequence (Q16531 whole entry partner) above
T2 sequence (P48729 whole entry): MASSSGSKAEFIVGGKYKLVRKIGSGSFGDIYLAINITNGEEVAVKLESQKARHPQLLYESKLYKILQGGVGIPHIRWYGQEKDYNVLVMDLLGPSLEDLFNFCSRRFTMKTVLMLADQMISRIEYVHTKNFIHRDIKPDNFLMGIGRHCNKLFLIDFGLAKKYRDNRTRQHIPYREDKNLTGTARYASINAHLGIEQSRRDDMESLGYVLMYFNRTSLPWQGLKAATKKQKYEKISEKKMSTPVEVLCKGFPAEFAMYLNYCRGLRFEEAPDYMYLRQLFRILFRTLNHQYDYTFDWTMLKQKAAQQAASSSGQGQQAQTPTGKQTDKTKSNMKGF
T2 sequence (Q96SW2 whole entry): as the sequence (Q96SW2 whole entry) above
T2 sequence (Q16531 whole entry partner): as the sequence (Q16531 whole entry partner) above
T3 sequence (P15170 whole entry): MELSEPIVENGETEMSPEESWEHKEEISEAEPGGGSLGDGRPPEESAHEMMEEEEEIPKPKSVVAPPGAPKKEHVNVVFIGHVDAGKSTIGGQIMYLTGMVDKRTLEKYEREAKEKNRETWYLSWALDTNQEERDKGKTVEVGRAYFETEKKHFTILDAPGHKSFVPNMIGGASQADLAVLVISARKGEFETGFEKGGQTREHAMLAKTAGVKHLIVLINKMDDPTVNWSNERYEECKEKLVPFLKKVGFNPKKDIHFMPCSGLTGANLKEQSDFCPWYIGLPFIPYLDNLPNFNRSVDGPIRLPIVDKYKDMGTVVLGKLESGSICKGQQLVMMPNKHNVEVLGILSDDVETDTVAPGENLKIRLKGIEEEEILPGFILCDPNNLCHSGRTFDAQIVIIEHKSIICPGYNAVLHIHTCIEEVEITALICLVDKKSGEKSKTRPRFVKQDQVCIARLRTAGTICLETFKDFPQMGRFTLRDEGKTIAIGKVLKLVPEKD
T3 sequence (Q96SW2 whole entry): as the sequence (Q96SW2 whole entry) above
T3 sequence (Q16531 whole entry partner): as the sequence (Q16531 whole entry partner) above

Row | Compound | IKZF2 substrate protein remaining % [1] | CK1α substrate protein remaining % [2] | GSPT1 substrate protein remaining % [3] | IKZF3 substrate protein remaining % [4] | IKZF1 substrate protein remaining % [5] | WEE1 substrate protein remaining % [6]
1 | O=C1CCN(N2Cc3cc(CN4CCC(c5ncc6ccsc6n5)CC4)ccc3C2=O)C(=O)N1 [GT-08115, 1-(1-oxo-5-((4-(thieno[2,3-d]pyrimidin-2-yl)piperidin-1-yl)methyl)isoindolin-2-yl)dihydropyrimidine-2,4(1H,3H)-dione] | B (80%< substrate protein remaining % ≤100%) | A (0% ≤ substrate protein remaining % ≤80%) | A (0% ≤ substrate protein remaining % ≤80%) | B (80%< substrate protein remaining % ≤100%) | B (80%< substrate protein remaining % ≤100%) | B (80%< substrate protein remaining % ≤100%)
2 | O=C1CCN(N2Cc3cc(CN4CC=C(c5ncnc6sccc56)CC4)ccc3C2=O)C(=O)N1 [GT-08116, 1-(1-oxo-5-((4-(thieno[2,3-d]pyrimidin-4-yl)-3,6-dihydropyridin-1(2H)-yl)methyl)isoindolin-2-yl)dihydropyrimidine-2,4(1H,3H)-dione] | B (80%< substrate protein remaining % ≤100%) | A (0% ≤ substrate protein remaining % ≤80%) | A (0% ≤ substrate protein remaining % ≤80%) | A (0% ≤ substrate protein remaining % ≤80%) | A (0% ≤ substrate protein remaining % ≤80%) | A (0% ≤ substrate protein remaining % ≤80%)
3 | Cc1csc2ncnc(C3=CCN(Cc4ccc5c(c4)CN(N4CCC(=O)NC4=O)C5=O)CC3)c12 [GT-08117, 1-(5-((4-(5-methylthieno[2,3-d]pyrimidin-4-yl)-3,6-dihydropyridin-1(2H)-yl)methyl)-1-oxoisoindolin-2-yl)dihydropyrimidine-2,4(1H,3H)-dione] | B (80%< substrate protein remaining % ≤100%) | A (0% ≤ substrate protein remaining % ≤80%) | A (0% ≤ substrate protein remaining % ≤80%) | A (0% ≤ substrate protein remaining % ≤80%) | B (80%< substrate protein remaining % ≤100%) | B (80%< substrate protein remaining % ≤100%)
4 | O=C1CCN(N2Cc3cc(CN4CCC(c5cccc(F)c5F)CC4)ccc3C2=O)C(=O)N1 [GT-08194, 1-(5-((4-(2,3-difluorophenyl)piperidin-1-yl)methyl)-1-oxoisoindolin-2-yl)dihydropyrimidine-2,4(1H,3H)-dione] | B (80%< substrate protein remaining % ≤100%) | B (80%< substrate protein remaining % ≤100%) | A (0% ≤ substrate protein remaining % ≤80%) | B (80%< substrate protein remaining % ≤100%) | A (0% ≤ substrate protein remaining % ≤80%) | B (80%< substrate protein remaining % ≤100%)
5 | O=C1CCN(N2C(=O)c3ccc(CN4CCC(c5ncnc6sc7c(c56)CCCC7)CC4)cc3C2=O)C(=O)N1 [GT-08424, 2-(2,4-dioxotetrahydropyrimidin-1(2H)-yl)-5-((4-(5,6,7,8-tetrahydrobenzo[4,5]thieno[2,3-d]pyrimidin-4-yl)piperidin-1-yl)methyl)isoindoline-1,3-dione] | B (80%< substrate protein remaining % ≤100%) | A (0% ≤ substrate protein remaining % ≤80%) | A (0% ≤ substrate protein remaining % ≤80%) | B (80%< substrate protein remaining % ≤100%) | B (80%< substrate protein remaining % ≤100%) | B (80%< substrate protein remaining % ≤100%)
6 | O=C1CCN(N2C(=O)c3ccc(CN4CCC(c5ncc6ccsc6n5)CC4)cc3C2=O)C(=O)N1 [GT-08427, 2-(2,4-dioxotetrahydropyrimidin-1(2H)-yl)-5-((4-(thieno[2,3-d]pyrimidin-2-yl)piperidin-1-yl)methyl)isoindoline-1,3-dione] | A (0% ≤ substrate protein remaining % ≤80%) | B (80%< substrate protein remaining % ≤100%) | B (80%< substrate protein remaining % ≤100%) | B (80%< substrate protein remaining % ≤100%) | B (80%< substrate protein remaining % ≤100%) | A (0% ≤ substrate protein remaining % ≤80%)
7 | Cc1csc2ncnc(C3=CCN(Cc4ccc5c(c4)C(=O)N(N4CCC(=O)NC4=O)C5=O)CC3)c12 [GT-08428, 2-(2,4-dioxotetrahydropyrimidin-1(2H)-yl)-5-((4-(5-methylthieno[2,3-d]pyrimidin-4-yl)-3,6-dihydropyridin-1(2H)-yl)methyl)isoindoline-1,3-dione] | A (0% ≤ substrate protein remaining % ≤80%) | B (80%< substrate protein remaining % ≤100%) | B (80%< substrate protein remaining % ≤100%) | A (0% ≤ substrate protein remaining % ≤80%) | B (80%< substrate protein remaining % ≤100%) | A (0% ≤ substrate protein remaining % ≤80%)
8 | O=C1CCN(N2C(=O)c3ccc(CN4CC=C(c5ncnc6sc(-c7ccccc7)cc56)CC4)cc3C2=O)C(=O)N1 [GT-08430, 2-(2,4-dioxotetrahydropyrimidin-1(2H)-yl)-5-((4-(6-phenylthieno[2,3-d]pyrimidin-4-yl)-3,6-dihydropyridin-1(2H)-yl)methyl)isoindoline-1,3-dione] | B (80%< substrate protein remaining % ≤100%) | B (80%< substrate protein remaining % ≤100%) | B (80%< substrate protein remaining % ≤100%) | B (80%< substrate protein remaining % ≤100%) | B (80%< substrate protein remaining % ≤100%) | A (0% ≤ substrate protein remaining % ≤80%)
9 | O=C1CCN(N2C(=O)c3ccc(CN4CC=C(c5ncnc6scc(-c7ccccc7)c56)CC4)cc3C2=O)C(=O)N1 [GT-08431, 2-(2,4-dioxotetrahydropyrimidin-1(2H)-yl)-5-((4-(5-phenylthieno[2,3-d]pyrimidin-4-yl)-3,6-dihydropyridin-1(2H)-yl)methyl)isoindoline-1,3-dione] | A (0% ≤ substrate protein remaining % ≤80%) | B (80%< substrate protein remaining % ≤100%) | B (80%< substrate protein remaining % ≤100%) | B (80%< substrate protein remaining % ≤100%) | B (80%< substrate protein remaining % ≤100%) | A (0% ≤ substrate protein remaining % ≤80%)
10 | Cc1nc(C2=CCN(Cc3ccc4c(c3)C(=O)N(N3CCC(=O)NC3=O)C4=O)CC2)c2c3c(sc2n1)CCCC3 [GT-08432, 2-(2,4-dioxotetrahydropyrimidin-1(2H)-yl)-5-((4-(2-methyl-5,6,7,8-tetrahydrobenzo[4,5]thieno[2,3-d]pyrimidin-4-yl)-3,6-dihydropyridin-1(2H)-yl)methyl)isoindoline-1,3-dione] | B (80%< substrate protein remaining % ≤100%) | A (0% ≤ substrate protein remaining % ≤80%) | A (0% ≤ substrate protein remaining % ≤80%) | A (0% ≤ substrate protein remaining % ≤80%) | B (80%< substrate protein remaining % ≤100%) | B (80%< substrate protein remaining % ≤100%)
11 | O=C1CCN(N2C(=O)c3ccc(CN4CC=C(c5ncnc6sc7c(c56)CCCC7)CC4)cc3C2=O)C(=O)N1 [GT-08433, 2-(2,4-dioxotetrahydropyrimidin-1(2H)-yl)-5-((4-(5,6,7,8-tetrahydrobenzo[4,5]thieno[2,3-d]pyrimidin-4-yl)-3,6-dihydropyridin-1(2H)-yl)methyl)isoindoline-1,3-dione] | B (80%< substrate protein remaining % ≤100%) | A (0% ≤ substrate protein remaining % ≤80%) | A (0% ≤ substrate protein remaining % ≤80%) | A (0% ≤ substrate protein remaining % ≤80%) | B (80%< substrate protein remaining % ≤100%) | B (80%< substrate protein remaining % ≤100%)

Source: patent US20260356819A1, “OXOISOINDOLINYL-SUBSTITUTED […] DERIVATIVE AND USE THEREOF” (GLUETACS THERAPEUTICS (SHANGHAI) CO., LTD., priority 2023, published 2026)
